# Reference: publication PMC10028969 (bioRxiv, 2023)
# What was measured:
# [1] = HEK-293 counter-screen assay; assay type: cell-based; details: human, HEK-293 cells
# [2] = system: T. b. brucei Lister 427; assay: SYBR Green viability assay with T. brucei; assay type: cell-based; details: Trypanosoma brucei, 72 h, read-out: T. b. brucei Lister 427 EC50 (nM) ± SD
# [3] = system: T. b. brucei Lister 427; assay: Mouse model of T. brucei infection; assay type: in vivo, Trypanosoma brucei brucei
# [4] = system: T. b. brucei Lister 427; assay: Time-kill assays; assay type: cell-based; details: Trypanosoma brucei, 12 h, read-out: parasite viability
compound,measurement,setting,value
"N=C(N)c1ccc(OCCCCCOc2ccc(C(=N)N)cc2)cc1 [Pentamidine, pentamidine]",CC50 at 48 h,[1],> 4000 nM
same,EC50,[2],69.6 ± 35.5 nM
same,mouse survival,"[3]; 4 mg/kg i.p. on day 2, end of the study, without parasite recrudescence",≥ 15 day post-infection
same,parasitemia within 24 h of administration,"[3]; single i.p. dose 4 mg/kg on day 2 post-infection, BALB/c female mice",< 2.5 × 10^5 parasites/ml
same,viability at 4 µM,[4],52.8%
